Measurements reported in patent publication US7511013B2, “Cyclosporin analogues and their pharmaceutical uses” (AMR Technology, Inc., priority 2004, dated 2009).
*1 amine or outer side, *2 acyl side, *3 side chain or, on linkers, in order; H or OH if unused. Where a SMILES comes first, the peptide text is derived from it. [ ]: non-standard residue; d: D form. X1 = C=C/C=C/C[C@@H](C)[C@@H](O)[C@@H](C(=O)[*:2])N(C)[*:1]; X3 = C[C@H](C/C=C/Cl)[C@@H](O)[C@@H](C(=O)[*:2])N(C)[*:1]; X2 = C[C@H](C/C=C/I)[C@@H](O)[C@@H](C(=O)[*:2])N(C)[*:1]; NMeL = CN[C@@H](CC(C)C)C(=O)O; NMeV = CN[C@H](C(=O)O)C(C)C; dNMeS = CN[C@H](CO)C(=O)O; Abu = CC[C@H](N)C(=O)O

Test system: concanavalin A-stimulated splenocytes
Experiment: Concanavalin A-stimulated splenocyte assay ([3H]thymidine incorporation)
Type: cell-based, BALB/c mice
Details: not given
Protocol: Male BALB/c mice, at 5 to 7 weeks of age, were sacrificed by CO2 inhalation. Spleens were removed and dissociated by pushing through a nylon cell strainer. The splenocytes were washed in RPMI 1640/5% fetal calf serum (FCS) and pelleted at 400×g. Red blood cells were then lysed by resuspending the cell pellet in ACK lysis buffer (150 mM NH4Cl, 1 mM KHCO3, 0.1 mM EDTA, 3 mL per spleen) for 10 min at room temperature. After pelleting at 400×g, the cells were washed by resuspending in RPMI 1640/5% FCS and repelleting. The cell pellet was resuspended in RPMI 1640/5% FCS and again passed through a cell strainer to remove cell aggregates. The cells were then counted and adjusted to 2×10^6 cells/ml in RPMI 1640/10% FCS/50 μM 2-mercaptoethanol. Cell viability was assessed by Trypan blue staining. […] The cells were cultured in a 37° C. CO2 incubator for 2 days and then pulsed with 1 μCi of [^3H]thymidine for 6 hours. Cells were harvested onto filtermats with a TomTec 96 well plate harvester and lysed with H2O. The filtermat and scintillation fluid were sealed in a plastic sleeve. [^3H]thymidine incorporation was measured with a Wallac Trilux plate counter. Initial screens were done at a fixed value of 100 ng/ml test compound. IC50s were calculated from 7 point concentration-response curves using GraphPad software.

SMILES	IC50 (ng/mL), immunosuppressive activity of novel cyclosporin analogue compound [ng/mL]
CC[C@@H]1NC(=O)[C@H]([C@H](O)[C@H](C)CC=CC(F)(F)F)N(C)C(=O)[C@H](C(C)C)N(C)C(=O)[C@H](CC(C)C)N(C)C(=O)[C@H](CC(C)C)N(C)C(=O)[C@@H](C)NC(=O)[C@H](C)NC(=O)[C@H](CC(C)C)N(C)C(=O)[C@H](C(C)C)NC(=O)[C@H](CC(C)C)N(C)C(=O)CN(C)C1=O [Example 31, cyclosporin fluoride]	38
CC[C@@H]1NC(=O)[C@H]([C@H](O)[C@H](C)C/C=C/I)N(C)C(=O)[C@H](C(C)C)N(C)C(=O)[C@H](CC(C)C)N(C)C(=O)[C@H](CC(C)C)N(C)C(=O)[C@@H](C)NC(=O)[C@H](C)NC(=O)[C@H](CC(C)C)N(C)C(=O)[C@H](C(C)C)NC(=O)[C@H](CC(C)C)N(C)C(=O)CN(C)C1=O [Example 6, cyclosporin vinyl iodide]	11
CC[C@@H]1NC(=O)[C@H]([C@H](O)[C@H](C)CC=CCF)N(C)C(=O)[C@H](C(C)C)N(C)C(=O)[C@H](CC(C)C)N(C)C(=O)[C@H](CC(C)C)N(C)C(=O)[C@@H](C)NC(=O)[C@H](C)NC(=O)[C@H](CC(C)C)N(C)C(=O)[C@H](C(C)C)NC(=O)[C@H](CC(C)C)N(C)C(=O)CN(C)C1=O [Example 34, cyclosporin allylic fluoride]	12
CC[C@@H]1NC(=O)[C@H]([C@H](O)[C@H](C)C/C=C/Br)N(C)C(=O)[C@H](C(C)C)N(C)C(=O)[C@H](CC(C)C)N(C)C(=O)[C@H](CC(C)C)N(C)C(=O)[C@@H](C)NC(=O)[C@H](C)NC(=O)[C@H](CC(C)C)N(C)C(=O)[C@H](C(C)C)NC(=O)[C@H](CC(C)C)N(C)C(=O)CN(C)C1=O [Example 19, trans-cyclosporin vinyl bromide]	9
C=C/C=C/C[C@@H](C)[C@@H](O)[C@H]1C(=O)N[C@@H](CC)C(=O)N(C)[C@H](CO)C(=O)N(C)[C@@H](CC(C)C)C(=O)N[C@@H](C(C)C)C(=O)N(C)[C@@H](CC(C)C)C(=O)N[C@@H](C)C(=O)N[C@H](C)C(=O)N(C)[C@@H](CC(C)C)C(=O)N(C)[C@@H](CC(C)C)C(=O)N(C)[C@@H](C(C)C)C(=O)N1C [Example 69, trans-cyclosporin diene-d2] (cyclo([X1][Abu][dNMeS][NMeL]V[NMeL]A[dA][NMeL][NMeL][NMeV]))	4
CC[C@@H]1NC(=O)[C@H]([C@H](O)[C@H](C)C/C=C/I)N(C)C(=O)[C@H](C(C)C)N(C)C(=O)[C@H](CC(C)C)N(C)C(=O)[C@H](CC(C)C)N(C)C(=O)[C@@H](C)NC(=O)[C@H](C)NC(=O)[C@H](CC(C)C)N(C)C(=O)[C@H](C(C)C)NC(=O)[C@H](CC(C)C)N(C)C(=O)CN(C)C1=O [Example 9, trans-deuterated cyclosporin vinyl iodide]	7
C=C/C=C/C[C@@H](C)[C@@H](O)[C@H]1C(=O)N[C@@H](CC)C(=O)N(C)[C@H](CO)C(=O)N(C)[C@@H](CC(C)C)C(=O)N[C@@H](C(C)C)C(=O)N(C)[C@@H](CC(C)C)C(=O)N[C@@H](C)C(=O)N[C@H](C)C(=O)N(C)[C@@H](CC(C)C)C(=O)N(C)[C@@H](CC(C)C)C(=O)N(C)[C@@H](C(C)C)C(=O)N1C [Example 67, trans-cyclosporin diene] (cyclo([X1][Abu][dNMeS][NMeL]V[NMeL]A[dA][NMeL][NMeL][NMeV]))	7
CCON=C/C=C/C[C@@H](C)[C@@H](O)[C@H]1C(=O)N[C@@H](CC)C(=O)N(C)CC(=O)N(C)[C@@H](CC(C)C)C(=O)N[C@@H](C(C)C)C(=O)N(C)[C@@H](CC(C)C)C(=O)N[C@@H](C)C(=O)N[C@H](C)C(=O)N(C)[C@@H](CC(C)C)C(=O)N(C)[C@@H](CC(C)C)C(=O)N(C)[C@@H](C(C)C)C(=O)N1C [Example 58, cyclosporin oxime]	42
CC[C@@H]1NC(=O)[C@H]([C@H](O)[C@H](C)C/C=C/I)N(C)C(=O)[C@H](C(C)C)N(C)C(=O)[C@H](CC(C)C)N(C)C(=O)[C@H](CC(C)C)N(C)C(=O)[C@@H](C)NC(=O)[C@H](C)NC(=O)[C@H](CC(C)C)N(C)C(=O)[C@H](C(C)C)NC(=O)[C@H](CC(C)C)N(C)C(=O)[C@@H](CO)N(C)C1=O [Example 72, cyclosporin vinyl iodide] (cyclo([X2][Abu][dNMeS][NMeL]V[NMeL]A[dA][NMeL][NMeL][NMeV]))	5
CC[C@@H]1NC(=O)[C@H]([C@H](O)[C@H](C)C/C=C/Cl)N(C)C(=O)[C@H](C(C)C)N(C)C(=O)[C@H](CC(C)C)N(C)C(=O)[C@H](CC(C)C)N(C)C(=O)[C@@H](C)NC(=O)[C@H](C)NC(=O)[C@H](CC(C)C)N(C)C(=O)[C@H](C(C)C)NC(=O)[C@H](CC(C)C)N(C)C(=O)[C@@H](CO)N(C)C1=O [Example 71, cyclosporin vinyl chloride] (cyclo([X3][Abu][dNMeS][NMeL]V[NMeL]A[dA][NMeL][NMeL][NMeV]))	8

Same assay, conditions: FIG. 1, concanavalin A stimulated splenocyte assay

SMILES	potency in immunosuppression compared to cyclosporin A
CC[C@@H]1NC(=O)[C@H]([C@H](O)[C@H](C)C/C=C/Cl)N(C)C(=O)[C@H](C(C)C)N(C)C(=O)[C@H](CC(C)C)N(C)C(=O)[C@H](CC(C)C)N(C)C(=O)[C@@H](C)NC(=O)[C@H](C)NC(=O)[C@H](CC(C)C)N(C)C(=O)[C@H](C(C)C)NC(=O)[C@H](CC(C)C)N(C)C(=O)CN(C)C1=O [Example 11, trans-deuterated cyclosporin vinyl chloride]	enhanced potency
CC[C@@H]1NC(=O)[C@H]([C@H](O)[C@H](C)C/C=C/I)N(C)C(=O)[C@H](C(C)C)N(C)C(=O)[C@H](CC(C)C)N(C)C(=O)[C@H](CC(C)C)N(C)C(=O)[C@@H](C)NC(=O)[C@H](C)NC(=O)[C@H](CC(C)C)N(C)C(=O)[C@H](C(C)C)NC(=O)[C@H](CC(C)C)N(C)C(=O)CN(C)C1=O [Example 9, trans-deuterated cyclosporin vinyl iodide]	enhanced potency
